The structures appear in SMILES notation.

Test [1] concerns the target T1, AsqJ (Aspergillus nidulans, UniProt Q5AR53). Kind of test: EPR titration of Mn2+-loaded AsqJ. The test is classed as binding.
For test [2], the target named is T1, AsqJ. Briefly: X-ray crystal structure. The test is classed as binding. Conditions: Fe, 2OG; formed in crystal from 1-H with 1 mM ascorbate and O2, 1.63 Å.

T1 sequence (Q5AR53 109-416): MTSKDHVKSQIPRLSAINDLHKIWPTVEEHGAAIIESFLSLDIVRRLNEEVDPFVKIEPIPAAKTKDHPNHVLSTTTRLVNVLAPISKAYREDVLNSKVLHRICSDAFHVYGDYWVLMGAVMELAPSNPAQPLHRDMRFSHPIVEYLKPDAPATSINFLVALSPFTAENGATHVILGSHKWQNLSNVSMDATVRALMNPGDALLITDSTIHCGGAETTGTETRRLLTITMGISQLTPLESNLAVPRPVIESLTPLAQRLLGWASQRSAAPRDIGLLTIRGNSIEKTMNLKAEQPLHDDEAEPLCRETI

In the case of `CN1C(=O)c2ccccc2NC(=O)/C1=C/c1ccc(C(F)(F)F)cc1` [2-CF3], the Kd in test [1] was roughly 5 µM.
For the molecule `CN1C(=O)c2ccccc2NC(=O)[C@@]12O[C@H]2c1ccccc1` [3-H, cyclopenin], the X-ray crystal structure result in test [2] was “revealed the presence of 3-H, and 2OG in the active site”.

Usually Kd stands for the equilibrium constant for the complex coming apart.

Values taken from PMC7343540 (Journal of the American Chemical Society, 2020).
